Reference: patent EP4810518A2, “ANTIBODY THAT BINDS ERBB-2 AND ERBB-3” (Merus B.V., priority 2017, dated 2018)

Assays:
[1] = system: HER2 overexpressing cells (SK-BR-3, BT-474, N87); experiment: In vitro drug combinations with PB4188 (checkerboard titrations, isobolograms); format: cell-based; settings: HRG in matrigel or HRG stress concentrations
Experimental: Moreover, combination with chemotherapeutic drugs and cyclin inhibitors were tested. Combinations were tested on HER2 overexpressing cells growing in the presence of HRG in matrigel (SK-BR-3 and BT-474) or in the presence of HRG stress concentrations (N87 and SK-BR-3 as described in proliferation assays). The inhibitory effect of drug combinations was tested by imaging or by measuring proliferation using Alamar Blue as described herein before. […] The extent of growth inhibition obtained with each combination was calculated. […] The inhibition values of the combination experiments were used by CHALICE™ Analyzer software to generate the isobolograms.

[2] = system: intracranial ST1360B PDX tumors
Description: Mice carrying ST1360B tumors were supplemented with estrogen following tumor implantation. The tumor was washed with PBS and trimmed for residual connective tissues at the surface. The tumor was cut into small pieces and digested with Accutase and Collagenase IV to yield a suspension of single cells. The digestion was stopped by addition of media containing fetal bovine serum and the cell suspension was filtered through a 100 µm filter, washed in PBS and resuspended in PBS. The viability of the tumor cells was checked by trypan blue staining and the final concentration was 18 million viable cells/mL. The viability of total cells was greater than 80%. There was no differentiation between stromal or tumor cells and the solutions do also contain some cell debris. […] The cells were kept on ice until inoculation.
Mice were anaesthetized by hypnorm/midazolam (1 ml/100 g body weight) and placed in a stereotactic frame for fixation of the head. A longitudinal incision was made in the scalp exposing the calvarium. A hole was drilled in the skull 1.5 mm right of the sutura saggitalis and 0.5 mm posterior to the bregma using a microdrill. Ten µl of the cell suspension (180.000 cells) was injected at a depth of 2-2.5 mm at a rate of 60 nl/sec using a 100 µl syringe with a 25-gauge needle placed in a micro infusion pump. The needle was left for 3 minutes before being withdrawn. Bupivacaine (0.2 mg/100 g bodyweight) and Lidocaine (1 mg/100 g body weight) were administrated in the incision site for local anesthetic and the skin was closed with a suture. The mice were ear punched for identification and returned to their cages where they were monitored until fully recovered from the anesthesia. The mice were monitored at least twice per week (weight and clinical signs) after tumor inoculation and more often if clinical signs or weight loss was present.
Tumor development was monitored bi-weekly by T2-weighted MR imaging (axial and coronal planes). The first imaging session was 19 days after tumor inoculation. The animals were anesthetized during the MR imaging sessions (sevoflurane, 2-4% in ambient air supplemented with 100% O2 at approximately 4:1 ratio). Enrolment into study was based on two pathological MR scans showing tumor growth and a tumor volume of about 10-20 mm^3. Mice that meet the enrolment criteria were randomized into one of four groups. The first 32 mice that meet the inclusion criteria were enrolled into the study. Mice were randomized so all groups presented with the same mean tumor volume at treatment initiation.
Drugs were diluted in sterile saline before each dosing. Mice were placed under a heating lamp for approximately 5-10 minutes before injection of the test compound to make the procedure as quick and easy as possible. The mouse was placed on a tail restrain box and the test compound was dosed in the lateral tail vein as a single intravenous (i.v.) bolus dose. The dosing volume was 5.0mL/kg.
Tumor growth were monitored bi-weekly by T2-weighted MR imaging (axial and coronal planes) for the first two weeks after therapy initiation and weekly until 6 weeks after therapy. The animals were anesthetized during the MR imaging sessions (sevoflurane, 2-4% in ambient air supplemented with 100% O2 at approximately 4:1 ratio).
The brain with tumor was resected and preserved in 4% formaldehyde for 24-48 hours and transferred to 70% ethanol. The fixative: tissue ratio was at least 20:1.
Tumor volumes were measured on the images by drawing region of interests (ROIs) on the individual slices and calculating the volume of the ROIs.

| Molecule | Drug combination with PB4188 (isobologram analysis) [1] | other results |
| --- | --- | --- |
| CCOc1cc2ncc(C#N)c(Nc3ccc(OCc4ccccn4)c(Cl)c3)c2cc1NC(=O)/C=C/CN(C)C [neratinib] | synergistic |  |
| CS(=O)(=O)CCNCc1ccc(-c2ccc3ncnc(Nc4ccc(OCc5cccc(F)c5)c(Cl)c4)c3c2)o1 [lapatinib] | synergistic |  |
| CC(=O)O[C@H]1C(=O)[C@@]2(C)[C@H]([C@H](OC(=O)c3ccccc3)[C@]3(O)C[C@H](OC(=O)[C@H](O)[C@@H](NC(=O)c4ccccc4)c4ccccc4)C(C)=C1C3(C)C)[C@]1(OC(C)=O)CO[C@@H]1C[C@@H]2O [paclitaxel] | synergistic |  |
| O=C(CCCCCCC(=O)Nc1ccccc1)NO [vorinostat] | synergistic |  |
| NC1(c2ccc(-c3nc4ccn5c(=O)[nH]nc5c4cc3-c3ccccc3)cc2)CCC1 [MK-2206] | synergistic |  |
| CO[C@H]1C[C@@H]2CC[C@@H](C)[C@@](O)(O2)C(=O)C(=O)N2CCCC[C@H]2C(=O)O[C@H]([C@H](C)C[C@@H]2CC[C@@H](OCCO)[C@H](OC)C2)CC(=O)[C@H](C)/C=C(\C)[C@@H](O)[C@@H](OC)C(=O)[C@H](C)C[C@H](C)/C=C/C=C/C=C/1C [everolimus] | synergistic |  |
| T-DM1 |  | Tumor growth by T2-weighted MRI ([2]; compared to vehicle treated mice): inhibited; mean tumor volume 10 days post therapy ([2]; compared to vehicle treated mice, p<0.05, Tukey): significantly smaller compared to vehicle treated mice; Brain edema score day 3 ([2]; individual mouse, scale 0-4 (0 no, 4 massive brain edema), day 3 post initiation of therapy): 0; median survival ([2]; post therapy initiation, T-DM1 10 mg/kg 4x qwk i.v., MCLA-128 25 mg/kg 4x twice wk i.v., vehicle 13 days): 19.5 days |
| Cc1nc(NC(=O)N2CCC[C@H]2C(N)=O)sc1-c1ccnc(C(C)(C)C(F)(F)F)c1 [BYL719] | synergistic |  |
